In PubChem BioAssay (NCI):
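The compound was tested at five concentrations on cells cultured in 96-well plates, with a 48-hour exposure period. The concentration for full growth arrest is given as TGI.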

What was measured:
Test in all cases: inhibition of tumour cell growth, NCI panel, 48 h
A498 renal = test system: A498 renal
DU-145 prostate = test system: DU-145 prostate
HCT-15 colon = test system: HCT-15 colon
HOP-62 NSCLC = test system: HOP-62 NSCLC
HT29 colon = test system: HT29 colon
M14 melanoma = test system: M14 melanoma
MDA-MB-231 breast = test system: MDA-MB-231 breast
NCI-H23 lung = test system: NCI-H23 lung
OVCAR-8 ovarian = test system: OVCAR-8 ovarian
RXF 393 renal = test system: RXF 393 renal
SK-MEL-2 melanoma = test system: SK-MEL-2 melanoma
SK-MEL-28 melanoma = test system: SK-MEL-28 melanoma
SN12C renal = test system: SN12C renal
SW-620 colon = test system: SW-620 colon
HL-60(TB) leukemia = test system: HL-60(TB) leukemia
SF-539 CNS = test system: SF-539 CNS

Compound	TGI (A498 renal) [µM]	TGI (DU-145 prostate) [µM]	TGI (HCT-15 colon) [µM]	TGI (HOP-62 NSCLC) [µM]	TGI (HT29 colon) [µM]	TGI (M14 melanoma) [µM]	TGI (MDA-MB-231 breast) [µM]	TGI (NCI-H23 lung) [µM]	TGI (OVCAR-8 ovarian) [µM]	TGI (RXF 393 renal) [µM]	TGI (SK-MEL-2 melanoma) [µM]	TGI (SK-MEL-28 melanoma) [µM]	TGI (SN12C renal) [µM]	TGI (SW-620 colon) [µM]	TGI (HL-60(TB) leukemia) [µM]	TGI (SF-539 CNS) [µM]
Cc1ccsc1/C=N/NC1=NCCN1	> 100	> 100	> 100	> 100	> 100	> 100	> 100	> 100	> 100	> 100	> 100	> 100	> 100	> 100	–	–
N/C(=N\N=C\c1cc2ccccc2s1)c1cnccn1	> 100	> 100	> 100	> 100	> 100	> 100	> 100	> 100	> 100	> 100	> 100	> 100	> 100	> 100	> 100	> 100
O=[N+]([O-])c1cc(C2(N3CCCCC3)CCCCC2)sc1Br	16.1	10.2	17.2	17.3	15.4	21.9	27.4	26.5	24	13.2	21.4	23.9	21.8	21.3	5.24	17.9
COC(=O)C1OC(O[C@H]2CC[C@]3(C)[C@H]4CC=C5[C@@H]6CC(C)(C)CC[C@]6(C(=O)OC)CC[C@@]5(C)[C@]4(C)CC[C@H]3C2(C)C)C(O)C(O)C1O (stereo partly specified)	34.3	27.9	27.1	31.9	22.9	30	19.2	32.4	31.2	18.2	31.9	32.7	26.8	34.6	36.7	–
CC(C)C[S+]1C2=C([O-])CC(C)(C)CC2=Nc2ccccc21 (stereo unspecified)	> 100	> 100	> 100	> 100	> 100	> 100	> 100	> 100	> 100	> 100	> 100	> 100	> 100	> 100	> 100	> 100
CCOC(=O)Oc1cc2ccsc2c2c1c1ccccc1n2C(=O)OCC	32.6	> 100	> 100	> 100	> 100	> 100	> 100	> 100	> 100	45.8	> 100	> 100	> 100	> 100	–	> 100
CN(C(=O)[C@H](NC(=O)OCc1ccccc1)c1ccccc1)C1CCCCC1N1CCCC1 (stereo partly specified)	> 100	> 100	> 100	> 100	> 100	56.4	> 100	> 100	> 100	> 100	> 100	> 100	> 100	> 100	–	–
Nc1nc(Cl)cc(NCC2(CO)CCCCC2)n1	> 100	> 100	> 100	> 100	> 100	> 100	> 100	> 100	> 100	> 100	> 100	> 100	> 100	> 100	> 100	> 100
COc1ccccc1N1CCN(CCCCNC(=O)c2ccc([N+](=O)[O-])o2)CC1	22.8	16.4	17.5	16.5	9.92	14.6	77.1	15.9	45.6	25.2	19.4	> 100	17.4	> 66	26.1	19.5
CC12NC(=C(C#N)C#N)C(C#N)=C3NC(N)=C(C#N)C(=C31)Oc1ccccc12 (stereo unspecified)	> 100	> 100	> 100	> 38.3	> 100	> 100	> 100	> 100	> 100	6.76	> 80.9	> 100	> 100	> 100	> 74.9	> 88.6
COC(=O)[C@H](CNC(=O)/C=C/c1ccc(OC(C)=O)c(OC(C)=O)c1)NC(=O)/C=C/c1ccc(OC(C)=O)c(OC(C)=O)c1	> 100	> 100	> 100	> 100	> 100	> 100	> 100	> 100	> 100	> 100	> 100	> 100	> 100	> 100	> 100	> 100
O=S(=O)(O)c1ccc2c(N=Nc3cccc4ccccc34)c(O)ccc2c1	> 100	> 100	> 100	> 100	> 100	> 100	> 100	> 100	> 100	> 100	> 100	> 100	> 100	> 100	> 100	–
Cc1cc(C)cc(Nc2nnc3n2S(=O)(=O)c2cc(C)c(Cl)cc2S3)c1	29.6	97	28.3	41.6	> 100	33.4	33.2	19.2	> 100	17.2	15.8	> 100	48.5	21.1	> 100	13.7
CCO/C(O)=C(/C(=N)N1CCOCC1)C(=O)Nc1cccc(C(F)(F)F)c1	> 100	> 100	> 100	> 100	> 100	> 100	> 100	> 100	> 100	> 100	> 100	> 100	> 100	> 100	> 100	> 100
COc1ccccc1C1C2=C(COC2=O)Oc2cc3c(cc21)OCO3 (stereo unspecified)	15.4	> 42.4	> 84.6	> 100	8.53	> 33.4	> 87.6	> 100	> 56.2	6.13	99.7	> 76	> 100	> 100	11.6	5.32
CN(C)c1ccc(/C=C/C(=O)c2cc(C(C)(C)C)c(O)c(C(C)(C)C)c2)cc1	> 100	6.8	> 100	> 100	> 30.2	> 51.7	8.69	> 100	> 100	0.511	> 100	> 100	> 38.7	> 100	> 24.4	1.8
CC[C@H](C)[C@H](NC(=O)N(CCC#N)CCN(CCN(C(=O)N[C@@H](Cc1ccccc1)C(=O)OC)c1ccccc1)C(=O)N[C@H](C(=O)OC)C(C)C)C(=O)OC	36.8	41.2	51.6	44.9	–	44.8	47.1	40.1	65.4	37.8	43.4	29.7	54.5	64.8	4.24	49.1
Cc1ccc(C2(O)c3ccccc3C(=O)N(C)C2(O)c2ccc(C)cc2)cc1 (stereo unspecified)	> 100	> 100	> 100	49.5	> 100	> 100	> 100	> 100	90.9	> 100	> 100	> 100	> 100	> 100	40.3	> 100
CN1C(=O)N(C)C2(CCN(CC(CC3OCCO3)c3ccc(F)cc3)CC2)C1=O (stereo unspecified)	> 100	> 100	> 100	> 100	> 100	> 100	> 100	> 100	> 100	> 100	> 100	> 100	> 100	–	> 100	> 100
O=c1oc2ccc([N+](=O)[O-])cc2nc1/C=C(\O)c1ccccc1	> 100	> 100	> 100	> 100	> 100	> 100	> 100	> 100	> 100	> 100	98.2	> 100	> 100	> 100	> 100	–
COc1ccc2c(c1)CC[C@@H]1[C@@H]2CC[C@]2(C)/C(=N/OCCN3CCCC3)CC[C@@H]12	9.9	15.5	2.65	4.67	3.96	2.64	8.92	19.5	12.4	4.16	4.2	2.82	15.9	3.68	5.53	3.92
CC1=C(C(=O)NNC(=O)Cc2ccccc2)CC(C(=O)NNC(=O)Cc2ccccc2)=C(C)N1	> 100	> 100	> 100	> 100	> 100	> 100	> 100	> 100	> 100	> 100	> 100	> 100	> 100	> 100	> 100	> 100
Cn1c(N/N=C/c2ccccc2)nc(-c2ccc3c(c2)OCO3)c(C#N)c1=O	> 100	> 100	> 100	> 100	> 100	> 100	> 100	> 100	90.6	> 100	> 100	> 100	> 100	> 100	> 100	> 100
Cc1cccc2c(N)c3cccc(C(=O)NCC[N+](C)(C)Cc4ccc([N+](=O)[O-])n4C)c3nc12	> 63.1	> 75.3	> 78	61.7	59	> 69.6	> 72.6	> 65.1	64.1	> 72.7	> 100	> 100	> 57.3	> 82.2	29.2	52.5
COc1ccccc1-n1cnc2c1NC(C)(C)N=C2C(N)=O	> 100	> 100	> 100	> 100	> 100	> 100	> 100	> 100	> 100	> 100	> 100	> 100	> 100	> 100	> 100	> 100
COc1ccc(-c2nc(-c3ccc(OC)cc3)n(-c3ccccc3)n2)cc1	> 100	> 100	> 100	> 100	> 100	> 100	> 100	> 100	> 100	> 100	> 100	> 100	> 100	> 100	> 100	> 100
Cc1nc2cn3c(c2c(=O)[nH]1)CCCCC3	> 100	> 100	> 100	> 100	> 100	> 100	69.7	> 100	> 100	> 100	> 100	> 100	–	> 100	> 100	> 100
c1ccc(-c2csc3c2-n2cccc2C3N2CCCC2)cc1 (stereo unspecified)	> 100	> 100	> 100	> 100	> 100	–	> 100	> 100	> 100	> 100	> 100	> 100	> 100	> 100	> 100	> 100
O=C1CC(c2ccc(Cl)cc2)C2(C(=O)NC(=S)NC2=O)C(c2ccc(Cl)cc2)C1 (stereo unspecified)	31.4	> 100	52.8	54.7	32.4	44.7	46.8	39	–	29.4	36.1	30.6	40.6	44.7	57.2	40.9
